{"source": "paper PMC7429263", "about": "(ACS infectious diseases, 2020)", "key": {"VanA E. faecalis BM 4166": {"tested_on": "VanA E. faecalis BM 4166", "test": "standard microdilution antimicrobial assay", "type": "cell-based"}, "[1]": {"tested_on": "VanA E. faecium ATCC BAA-2317", "test": "standard microdilution antimicrobial assay", "type": "cell-based"}, "in vivo PK in mice": {"test": "in vivo PK in mice", "details": "iv"}, "[2]": {"tested_on": "VanA VRE E. faecalis BM 4166 and E. faecium ATCC BAA-2317", "details": "3 even at 100 μM; cited from earlier work"}, "VanA VRE, 4 strains [3]": {"tested_on": "VanA VRE, 4 strains", "test": "standard microdilution assay, panel of vancomycin-resistant organisms", "type": "cell-based, E. faecalis, E. faecium"}, "two VanA VRE strains [4]": {"tested_on": "two VanA VRE strains", "details": "same two VanA VRE strains; cited from earlier work"}, "[5]": {"tested_on": "VanA VRE E. faecium ATCC BAA-2317", "type": "cell-based", "details": "ATCC BAA-2317, +LTA 100 μg/mL"}, "VanA VRE, 4 strains [6]": {"tested_on": "VanA VRE, 4 strains", "details": "resistant pathogens with D-Ala-D-Lac cell wall precursor; cited from earlier work"}, "VanA E. faecium TX2465": {"tested_on": "VanA E. faecium TX2465", "test": "standard microdilution antimicrobial assay", "type": "cell-based", "details": "Enterococcus faecium"}, "[7]": {"tested_on": "MRSA S. aureus ATCC 43300", "test": "standard microdilution antimicrobial assay", "type": "cell-based", "details": "Staphylococcus aureus, ATCC43300|MRSA"}, "[8]": {"tested_on": "VanA VRE E. faecalis BM 4166", "test": "microbe, parasite or virus in culture", "details": "Enterococcus faecalis"}, "[9]": {"tested_on": "VanA VRE E. faecalis BM 4166 and E. faecium ATCC BAA-2317", "test": "microdilution antimicrobial assay with added LTA or other additives", "type": "cell-based", "details": "100 μg/mL LTA"}, "[10]": {"tested_on": "VanA VRE E. faecalis BM 4166 and E. faecium ATCC BAA-2317", "test": "bacteria cell membrane permeability assay", "details": "10 μM added at 5 min"}, "[11]": {"tested_on": "Sensitive S. aureus ATCC 25923", "test": "standard microdilution antimicrobial assay", "type": "cell-based", "details": "Staphylococcus aureus, ATCC25923"}, "[12]": {"details": "D-Ala-D-Ala to D-Ala-D-Lac remodeling; cited from earlier work"}, "two VanA VRE strains [13]": {"tested_on": "two VanA VRE strains", "test": "multi-passage resistance development assay", "type": "cell-based", "details": "Enterococcus"}, "[14]": {"tested_on": "VanA VRSA strain (VRS2), S. aureus", "details": "cited from earlier work"}, "[15]": {"tested_on": "VanB E. faecalis ATCC 51299", "test": "standard microdilution antimicrobial assay", "type": "cell-based", "details": "Enterococcus faecalis, ATCC51299"}, "[16]": {"tested_on": "VanA VRE E. faecalis BM 4166", "details": "BM 4166, +LTA 100 μg/mL"}}, "note": "Where two headings read alike, the source gives them in different places."}
{"smiles": "CN[C@H](CC(C)C)C(=O)N[C@H]1C(=O)N[C@@H](CC(N)=O)C(=O)N[C@H]2C(=O)N[C@H]3C(=O)N[C@H](C(=O)N[C@H](C(=O)N[C@@H](CCCNC(=N)N)C(=O)O)c4cc(O)cc(O)c4-c4cc3ccc4O)[C@H](O)c3ccc(c(Cl)c3)Oc3cc2cc(c3OC2OC(CO)C(O)[C@H](O)C2O[C@H]2CC(C)(N)[C@H](O)[C@H](C)O2)Oc2ccc(cc2Cl)[C@H]1O", "note": "(stereo partly shown) [Arg-vancomycin (11)]", "values": [{"measurement": "MIC", "setting": "VanA E. faecalis BM 4166; VanA E. faecalis BM 4166", "value": 63, "unit": "µg/mL"}, {"measurement": "MIC", "setting": "[1]", "value": 63, "unit": "µg/mL"}]}
{"smiles": "CN[C@H](CC(C)C)C(=O)N[C@H]1C(=O)N[C@@H](CC(N)=O)C(=O)N[C@H]2C(=O)NC3C(=O)N[C@H](C(=O)N[C@H](C(=O)NCCC[N+](C)(C)C)c4cc(O)cc(O)c4-c4cc3ccc4O)[C@H](O)c3ccc(c(Cl)c3)Oc3cc2cc(c3OC2OC(CO)C(O)[C@H](O)[C@@H]2O[C@H]2CC(C)(NCc3ccc(-c4ccc(Cl)cc4)cc3)[C@H](O)[C@H](C)O2)Oc2ccc(cc2Cl)[C@H]1O", "note": "(stereo partly shown) [C1-CBP-vancomycin (4)]", "values": [{"measurement": "AUC", "setting": "in vivo PK in mice; 10 mg/kg", "value": 48.4, "unit": "Mg-h/mL"}, {"measurement": "CL", "setting": "in vivo PK in mice; 10 mg/kg", "value": 2, "unit": "mL/min/kg"}, {"measurement": "Cmax", "setting": "in vivo PK in mice; 10 mg/kg", "value": 14.5, "unit": "Mg/mL"}, {"measurement": "Vss", "setting": "in vivo PK in mice; 10 mg/kg", "value": 0.64, "unit": "L/kg"}, {"measurement": "t1/2", "setting": "in vivo PK in mice; 10 mg/kg", "value": 5.1, "unit": "h"}, {"measurement": "tmax", "setting": "in vivo PK in mice; 10 mg/kg", "value": 4.8, "unit": "min"}, {"measurement": "induced cell membrane permeabilization, in words", "setting": "[2]", "value": "pronounced membrane permeabilization"}, {"measurement": "improvement in antimicrobial potency compared with vancomycin", "setting": "VanA VRE, 4 strains [3]", "value": "ca. 1000 fold"}, {"measurement": "MIC", "setting": "[1]", "value": 0.3, "unit": "µg/mL"}]}
{"smiles": "CN[C@H](CC(C)C)C(=O)N[C@H]1C(=O)N[C@@H](CC(N)=O)C(=O)N[C@H]2C(=O)NC3C(=O)N[C@H](C(=O)N[C@H](C(=O)NCCC[N+](C)(C)C)c4cc(O)cc(O)c4-c4cc3ccc4O)[C@H](O)c3ccc(c(Cl)c3)Oc3cc2cc(c3OC2OC(CO)C(O)[C@H](O)[C@@H]2O[C@H]2CC(C)(N)[C@H](O)[C@H](C)O2)Oc2ccc(cc2Cl)[C@H]1O", "note": "(stereo partly shown) [C1-vancomycin (3)]", "values": [{"measurement": "induced cell membrane permeabilization, in words", "setting": "[2]", "value": "weaker"}, {"measurement": "MIC", "setting": "[1]", "value": 31, "unit": "µg/mL"}]}
{"smiles": "CCCCCCCCCC(=O)N[C@@H](Cc1c[nH]c2ccccc12)C(=O)N[C@H](CC(N)=O)C(=O)N[C@@H](CC(=O)O)C(=O)N[C@@H]1C(=O)NCC(=O)N[C@@H](CCCN)C(=O)N[C@@H](CC(=O)O)C(=O)N[C@H](C)C(=O)N[C@@H](CC(=O)O)C(=O)NCC(=O)N[C@H](CO)C(=O)N[C@@H]([C@H](C)CC(=O)O)C(=O)N[C@@H](CC(=O)c2ccccc2N)C(=O)O[C@@H]1C", "note": "[daptomycin]", "values": [{"measurement": "rate of resistance emergence, in words", "setting": "two VanA VRE strains [4]", "value": "raise resistance more rapidly and in a more pronounced manner than either 2 or 5"}]}
{"smiles": "CC(=O)NC[C@H]1CN(c2ccc(N3CCOCC3)c(F)c2)C(=O)O1", "note": "[linezolid]", "values": [{"measurement": "rate of resistance emergence, in words", "setting": "two VanA VRE strains [4]", "value": "raise resistance more rapidly and in a more pronounced manner than either 2 or 5"}]}
{"smiles": "CN(C)c1cc(NC(=O)CNC(C)(C)C)c(O)c2c1C[C@H]1C[C@H]3[C@H](N(C)C)C(O)=C(C(N)=O)C(=O)[C@@]3(O)C(O)=C1C2=O", "note": "[tigecycline]", "values": [{"measurement": "rate of resistance emergence, in words", "setting": "two VanA VRE strains [4]", "value": "raise resistance more rapidly and in a more pronounced manner than either 2 or 5"}]}
{"smiles": "CN[C@H](CC(C)C)C(=O)N[C@H]1C(=O)N[C@@H](CC(N)=O)C(=O)N[C@H]2C(=O)N[C@H]3C(=O)N[C@H](C(=O)N[C@H](C(=O)O)c4cc(O)cc(O)c4-c4cc3ccc4O)[C@H](O)c3ccc(c(Cl)c3)Oc3cc2cc(c3O[C@@H]2O[C@H](CO)[C@@H](O)[C@H](O)[C@H]2O[C@H]2C[C@](C)(N)[C@H](O)[C@H](C)O2)Oc2ccc(cc2Cl)[C@H]1O", "note": "[vancomycin (1), vancomycin]", "values": [{"measurement": "MIC", "setting": "[5]", "value": 250, "unit": "µg/mL"}, {"measurement": "reduction of antimicrobial potency", "setting": "VanA VRE, 4 strains [6]", "value": 1000, "unit": "fold"}, {"measurement": "MIC", "setting": "VanA E. faecium TX2465", "value": 250, "unit": "µg/mL"}, {"measurement": "dose proportionality of PK, in words", "setting": "in vivo PK in mice", "value": "well behaved dose proportional PK across all parameters"}, {"measurement": "MIC", "setting": "[7]", "value": 0.5, "unit": "µg/mL"}, {"measurement": "MIC", "setting": "[8]", "value": 250, "unit": "µg/mL"}, {"measurement": "decrease of antimicrobial activity with added LTA", "setting": "[9]", "value": "no difference"}, {"measurement": "induced cell membrane permeabilization, in words", "setting": "[10]", "value": "no permeabilization"}, {"measurement": "MIC", "setting": "[11]", "value": 0.5, "unit": "µg/mL"}, {"measurement": "reduction of binding affinity", "setting": "[12]", "value": 1000, "unit": "fold"}, {"measurement": "MIC", "setting": "VanA E. faecalis BM 4166; Enterococcus faecalis", "value": 250, "unit": "µg/mL"}, {"measurement": "MIC", "setting": "two VanA VRE strains [13]", "value": 250, "unit": "µg/mL"}, {"measurement": "activity in the thigh infection model, in words", "setting": "[14]", "value": "inactive"}, {"measurement": "MIC", "setting": "[15]", "value": 8, "unit": "µg/mL"}, {"measurement": "MIC", "setting": "[16]", "value": 250, "unit": "µg/mL"}]}
